Our source for the IC50 values is US20240025922A1, “TETRAHYDROPYRIDO[3,4-d]PYRIMIDINES AS HPK1 INHIBITORS” (Merck Patent GmbH, priority 2022, published 2024).

The IC50 is the midpoint of a concentration-inhibition curve.

Read-outs that look alike come from different tables or passages of the source.

In test [1] the target is full-length human HPK1 (MAP4K1) (Homo sapiens (Human), UniProt Q92918). The experiment in a line: HPK1 Kinase Assay (Biochemical Assay), ADP-Glo. The note with it: GST-HPK1 3.2 nM, 10 μM ATP, MBP substrate, read-out: HPK1 enzymatic IC50. The text has this:
HPK1 Kinase Assay (Biochemical Assay).
A recombinant fusion protein consisting of full-length human HPK1 (MAP4K1) with an N-terminal Glutatione S-transferase (GST) tag was produced in insect cells Sf21 using the baculovirus expression system. GST-HPK1 protein was purified from cell lysates by glutathione Sepharose affinity chromatography. The assay is run in three continuous steps: 1) the HPK1 enzymatic kinase reaction, 2) an ATP depletion, and 3) the ADP detection, the steps 2 and 3 are performed with ADP-Glo™ Kinase Assay kit from Promega (V9101). Test compounds were prepared by 10-point serial dilution in dimethyl sulfoxide (DMSO) and 100 nL of each dilution was spotted onto a 384-well Optiplate (Perkin Elmer and Cat #6007299) by Labcyte Echo. 5 μL kinase reaction buffer (0.02% Brij-35, 2 mM DTT, 50 mM HEPES pH 7.5, MgCl2 10 mM, BSA 0.01% and O-glycerophosphate 12.5 mM) containing HPK1 (3.2 nM) enzyme was transferred to each well and incubated for 15 minutes at room temperature at 60% humidity. The enzymatic reaction was started by adding 5 μl of Start-Mix (10 μM ATP and 3.235 μM MBP). After 120 minutes, the reaction was stopped by adding 5 μL of ADP-Glo reagent (Promega, V9101) and incubating for 40 min. in the dark at 23° C. To determine the level of ADP, 10 μl ADP-Glo Detection solution was added and incubated for 1 hour at 23° C. in the dark. The plate was transferred to a Perkin Elmer EnVision (2104 Multilabel Reader) for luminescence detection and percent inhibition activity and IC50 value were determined using Genedata Screener.

The target of test [2] is HPK1 (SLP76 phosphorylation at Ser376 in Jurkat and EL-4 cells) (Homo sapiens, UniProt Q92918). Type of test: cell-based. As for the experimental part:
Cellular Assay—Phospho-SLP-76 (Ser376).
Inhibition of HPK1 enzymatic activity in cells was determined by detection of SLP76 phosphorylation at Ser376 residue in lysate from Jurkat (human) and EL-4 (mouse) cells. Jurkat and EL-4 cells express both HPK1 and SLP76 naturally. All cells were cultured in RPMI 1640 media containing 10% heat inactivated fetal bovine serum (FBS) and 1×Penicillin-Streptomycin. In either Jurkat or El-4 assay, cells were pre-incubated with test compounds prior to T cell stimulation by respective αCD3/αCD28 Dynabeads™. For detection, plates were read on the Envision and percent inhibition and IC50 were determined by Smart fit in Genedata Analyzer.
For Jurkat cells: 35 μL cell suspension were dispensed at a density of 30,000 cells/well in 384-well plates containing HBSS (Gibco, 14025076)+0.1% BSA). 10-point logarithmic serial dilution of test compounds in DMSO were prepared by a Hamilton automated liquid handling robot and 35 nL was transferred into each well by an Echo liquid handler. After 60 min. pre-incubation, the cells were stimulated by adding 5 μL human T activator αCD3/αCD28 Dynabeads™ (Gibco, 11132D) at 1.2×107 beads/mL for 15 minutes at 37° C. Detection of Ser376 phosphorylation status was accomplished by first adding 10 μL of 5×AlphaLISA lysis buffer (Perkin Elmer, ALSU-PSLP-A500) to each well of the cell plate using a Multidrop Combi (5840300), followed by 20 minutes shaking. 10 μL cell lysate from each treatment were then transferred to a white 384-well plate (Corning 3572) and incubated with AlphaLISA acceptor beads for one hour (AlphaLISA SureFire Ultra p-SLP76(Ser376), Perkin Elmer, ALSU-PSLP-A500), and donor beads for additional 2 hours at room temperature in the dark.
For EL-4.IL2 assay, 50 μL cell suspension at 2×10^6 cells/mL in HBSS were first dispensed into 384-well plates and then 50 nL serial dilutions of test compounds were spotted to each well by an Echo liquid handler. After 60 min. incubation at 37° C., cells were stimulated by adding 5 μL mouse T cell activator αCD3/αCD28 Dynabeads™ (ThermFisher Scientific, 11452D) for 30 minutes at 37° C. After a brief spin and subsequent supernatant discarded, 12.5 μL of Cisbio lysis buffer were added to each well and plates were shaken for 30 min at 450 RPM. For detection, 4 μL prepared HTRF antibody mixture (Cisbio, 63ADK000U) in detection buffer were mixed with 16 μl of cell lysate and plates were incubated at room temperature for 19 hours prior to EnVision reading.

Setting [3] is: read-out: HPK1 pSLP76 IC50; αCD3/αCD28 Dynabeads stimulated cells, pSLP76 (Ser376) detection.
Setting [4] is: αCD3/αCD28 Dynabeads stimulated cells, pSLP76 (Ser376) detection; read-out: HPK1 pSLP76 IC50.

Sequence of full-length human HPK1 (MAP4K1) (Q92918 whole entry): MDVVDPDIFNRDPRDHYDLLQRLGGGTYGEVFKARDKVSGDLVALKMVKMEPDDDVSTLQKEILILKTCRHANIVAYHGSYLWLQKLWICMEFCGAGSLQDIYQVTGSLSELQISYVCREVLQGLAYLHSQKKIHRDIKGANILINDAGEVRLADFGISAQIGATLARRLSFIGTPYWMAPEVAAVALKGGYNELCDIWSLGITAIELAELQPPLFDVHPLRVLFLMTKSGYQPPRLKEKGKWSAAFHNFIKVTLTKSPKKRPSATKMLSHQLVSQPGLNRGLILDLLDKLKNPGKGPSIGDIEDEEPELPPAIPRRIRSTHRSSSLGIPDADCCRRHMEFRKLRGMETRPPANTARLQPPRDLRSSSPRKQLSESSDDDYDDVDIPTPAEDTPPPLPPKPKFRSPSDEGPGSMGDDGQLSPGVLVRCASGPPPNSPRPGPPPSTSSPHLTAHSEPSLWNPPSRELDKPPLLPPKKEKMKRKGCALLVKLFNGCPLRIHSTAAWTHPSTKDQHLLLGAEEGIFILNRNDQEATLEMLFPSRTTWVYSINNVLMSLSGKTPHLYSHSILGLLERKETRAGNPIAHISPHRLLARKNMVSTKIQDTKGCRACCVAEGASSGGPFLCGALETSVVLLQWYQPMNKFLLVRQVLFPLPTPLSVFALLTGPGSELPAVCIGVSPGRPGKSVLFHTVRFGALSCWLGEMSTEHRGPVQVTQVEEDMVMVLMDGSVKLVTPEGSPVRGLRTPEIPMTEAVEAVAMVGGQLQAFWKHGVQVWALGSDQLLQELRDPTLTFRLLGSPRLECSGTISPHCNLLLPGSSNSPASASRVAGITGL
Sequence of HPK1 (SLP76 phosphorylation at Ser376 in Jurkat and EL-4 cells) (Q92918 whole entry, looked up): as the sequence (Q92918 whole entry) above

As to `Cc1c(N2CCc3cnc(Nc4ccc5c(c4)CN(C)C5=O)nc3C2)cnc2c1NCCO2` [Example 96, 2-methyl-5-((7-(8-methyl-2,3-dihydro-1H-pyrido[2,3-b][1,4]oxazin-7-yl)-5,6,7,8-tetrahydropyrido[3,4-d]pyrimidin-2-yl)amino)isoindolin-1-one], the values for the IC50 in test [1] and in test [2] (setting [3]) were < 100 nM and > 1000 nM, respectively.
In the case of `COC(=O)Nc1ccc(Nc2ncc3c(n2)CN(c2cnc4c(c2C)NCCO4)CC3)cc1` [Example 71, methyl N-{4-[(7-{8-methyl-1H,2H,3H-pyrido[2,3-b][1,4]oxazin-7-yl}-5H,6H,7H,8H-pyrido[3,4-d]pyrimidin-2-yl)amino]phenyl}carbamate], the IC50 is < 100 nM in test [1] and < 500 nM in test [2] (setting [4]).
The corresponding values for `Cc1cc(Nc2ncc3c(n2)CN(c2cnc4c(c2C)NCCO4)CC3)ccc1NC(=O)CN1CCC1` [Example 3, 2-(azetidin-1-yl)-N-{2-methyl-4-[(7-{8-methyl-1H,2H,3H-pyrido[2,3-b][1,4]oxazin-7-yl}-5H,6H,7H,8H-pyrido[3,4-d]pyrimidin-2-yl)amino]phenyl}acetamide] are < 100 nM and < 500 nM.
On to `Cc1c(N2CCc3cnc(Nc4ccc(Cn5cncn5)cc4)nc3C2)cnc2c1NCCO2` [Example 126, 7-{8-methyl-1H,2H,3H-pyrido[2,3-b][1,4]oxazin-7-yl}-N-{4-[(1H-1,2,4-triazol-1-yl)methyl]phenyl}-5H,6H,7H,8H-pyrido[3,4-d]pyrimidin-2-amine], for which the figures for the half-inhibitory concentration (IC50) in test [1] and in test [2] (setting [4]) were < 100 nM and < 500 nM, respectively.
In the case of `Cc1c(N2CCc3cnc(Nc4ccc(CS(C)(=O)=O)nc4)cc3C2)cnc2c1NCCO2` [Example 51, 6-(8-methyl-2,3-dihydro-1H-pyrido[2,3-b][1,4]oxazin-7-yl)-N-(6-((methylsulfonyl)methyl)pyridin-3-yl)-5,6,7,8-tetrahydro-2,6-naphthyridin-3-amine], the IC50 was < 100 nM in test [1] and 500 to 1000 nM in test [2] (setting [4]).
In the case of `Cc1cnsc1N1CCc2cnc(Nc3cnc4c(c3)CN(C)CC4)nc2C1` [Example 119, N-(6-methyl-5,6,7,8-tetrahydro-1,6-naphthyridin-3-yl)-7-(4-methylisothiazol-5-yl)-5,6,7,8-tetrahydropyrido[3,4-d]pyrimidin-2-amine], the concentration for half-maximal inhibition (IC50) in test [1] is < 100 nM; in test [2] (setting [4]), > 1000 nM.
The matching figures for `Cc1c(N2CCc3cnc(Nc4ccc(C(C)(C)S(C)(=O)=O)cc4)nc3C2)cnc2c1NCCO2` [Example 186, N-[4-(2-methanesulfonylpropan-2-yl)phenyl]-7-{8-methyl-1H,2H,3H-pyrido[2,3-b][1,4]oxazin-7-yl}-5H,6H,7H,8H-pyrido[3,4-d]pyrimidin-2-amine]: < 100 nM and 500 to 1000 nM.
The matching figures for `Cc1c(N2CCc3cnc(Nc4ccnc(N5CCN(C)CC5)c4)nc3C2)cnc2c1NCCO2` [Example 72, N-(7-{8-methyl-1H,2H,3H-pyrido[2,3-b][1,4]oxazin-7-yl}-5H,6H,7H,8H-pyrido[3,4-d]pyrimidin-2-yl)-2-(4-methylpiperazin-1-yl)pyridin-4-amine]: < 100 nM and < 500 nM.
As for `CNCc1ccc(Nc2ncc3c(n2)CN(c2cnc4c(c2C)NCCO4)CC3)cc1` [Example 53, 7-(8-methyl-2,3-dihydro-1H-pyrido[2,3-b][1,4]oxazin-7-yl)-N-(4-((methylamino)methyl)phenyl)-5,6,7,8-tetrahydropyrido[3,4-d]pyrimidin-2-amine], the values for the half-inhibitory concentration (IC50) in test [1] and in test [2] (setting [4]) were < 100 nM and 500 to 1000 nM, respectively.
The matching figures for `Cc1cc(Nc2ncc3c(n2)CN(c2cnc4c(c2C)NCCO4)CC3)ccc1N(C)CCN1CCOCC1` [Example 17, N1,2-dimethyl-N4-(7-{8-methyl-1H,2H,3H-pyrido[2,3-b][1,4]oxazin-7-yl}-5H,6H,7H,8H-pyrido[3,4-d]pyrimidin-2-yl)-N1-[2-(morpholin-4-yl)ethyl]benzene-1,4-diamine; formic acid]: < 100 nM and 500 to 1000 nM.
With `Cc1cc(Nc2ncc3c(n2)CN(c2cnc4c(c2C)NCCO4)CC3)cnc1NCCN(C)C` [Example 28, N2-[2-(dimethylamino)ethyl]-3-methyl-N5-(7-{8-methyl-1H,2H,3H-pyrido[2,3-b][1,4]oxazin-7-yl}-5H,6H,7H,8H-pyrido[3,4-d]pyrimidin-2-yl)pyridine-2,5-diamine], the IC50 in test [1] is < 100 nM; in test [2] (setting [4]) it was 500 to 1000 nM.
Regarding `Cc1c(N2CCc3cnc(Nc4ccc(N5CCC(O)CC5)nc4)nc3C2)cnc2c1NCCO2` [Example 102, 1-(5-((7-(8-methyl-2,3-dihydro-1H-pyrido[2,3-b][1,4]oxazin-7-yl)-5,6,7,8-tetrahydropyrido[3,4-d]pyrimidin-2-yl)amino)pyridin-2-yl)piperidin-4-ol], the figures for the IC50 in test [1] and in test [2] (setting [3]) were < 100 nM and > 1000 nM, respectively.
As to `Cc1c(N2CCc3cnc(Nc4ccc(CN5CCCC5)cc4)nc3C2)cnc2c1NCCO2` [Example 125, 7-{8-methyl-1H,2H,3H-pyrido[2,3-b][1,4]oxazin-7-yl}-N-{4-[(pyrrolidin-1-yl)methyl]phenyl}-5H,6H,7H,8H-pyrido[3,4-d]pyrimidin-2-amine], the 50% inhibitory concentration (IC50) is < 100 nM in test [1] and > 1000 nM in test [2] (setting [4]).
With `Cc1c(N2CCc3cnc(Nc4cnc5c(c4)CN(C)CC5)nc3C2)cnc2c1NCCO2` [Example 115, 7-(8-methyl-2,3-dihydro-1H-pyrido[2,3-b][1,4]oxazin-7-yl)-N-(6-methyl-5,6,7,8-tetrahydro-1,6-naphthyridin-3-yl)-5,6,7,8-tetrahydropyrido[3,4-d]pyrimidin-2-amine], the figures for the half-inhibitory concentration (IC50) in test [1] and in test [2] (setting [4]) were < 100 nM and 500 to 1000 nM, respectively.
Turning to `Cc1c(N2CCc3cnc(Nc4ccc(CC(=O)N5CC(N6CCOCC6)C5)cc4)nc3C2)cnc2c1NCCO2` [Example 165, 2-{4-[(7-{8-methyl-1H,2H,3H-pyrido[2,3-b][1,4]oxazin-7-yl}-5H,6H,7H,8H-pyrido[3,4-d]pyrimidin-2-yl)amino]phenyl}-1-[3-(morpholin-4-yl)azetidin-1-yl]ethan-1-one], the IC50 in test [1] was < 100 nM; in test [2] (setting [4]), < 500 nM.
The matching figures for `COCCOc1ccc(Nc2ncc3c(n2)CN(c2cnc4c(c2C)NCCO4)CC3)cc1` [Example 98, N-(4-(2-methoxyethoxy)phenyl)-7-(8-methyl-2,3-dihydro-1H-pyrido[2,3-b][1,4]oxazin-7-yl)-5,6,7,8-tetrahydropyrido[3,4-d]pyrimidin-2-amine]: < 100 nM and 500 to 1000 nM.
The corresponding values for `Cc1cc(Nc2cc3c(cn2)CCN(c2cnc4c(c2C)NCCO4)C3)ccc1C(=O)NCCN1CCOCC1` [Example 27, 2-methyl-4-[(6-{8-methyl-1H,2H,3H-pyrido[2,3-b][1,4]oxazin-7-yl}-5,6,7,8-tetrahydro-2,6-naphthyridin-3-yl)amino]-N-[2-(morpholin-4-yl)ethyl]benzamide] are < 100 nM and 500 to 1000 nM.
